# Test results taken from PubChem BioAssay AID278 (DTP/NCI, 2004).
# Results filed as inconclusive are left out.
# Test system: nude mice, A549 intrarenal xenograft, tumor weight change
# Assay: NCI In Vivo Anticancer Drug Screen. Data for tumor model A549 Human Adenocarcinoma of Lung with characteristics of Type II Alveolar Epithelial cells (intrarenal inoculation) in NU/NU BALB/C (nude) mice
# Conditions: endpoint: mean tumor weight change, schedule: Q04DX003 (ip), higher = larger tumour
# Description: The antitumor activity of compounds was measured in mice bearing transplantable tumors. Survival or tumor size were measured and the results are expressed as the measurement made in the treated group (T) divided by the measurement made in the vehicle treated control group (C). The tumor model used in this assay is A549 Human Adenocarcinoma of Lung with characteristics of Type II Alveolar Epithelial cells (intrarenal inoculation) in NU/NU BALB/C (nude) mice
# [1] = dose: 150.0 mg/kg/injection, vehicle: saline with Tween-80
# [2] = dose: 300.0 mg/kg/injection, vehicle: saline with Tween-80
# [3] = dose: 12.5 mg/kg/injection, vehicle: saline with Tween-80
# [4] = dose: 25.0 mg/kg/injection, vehicle: saline with Tween-80
# [5] = dose: 50.0 mg/kg/injection, vehicle: saline with Tween-80
# [6] = dose: 200.0 mg/kg/injection, vehicle: saline with Tween-80
structure (smiles),measurement,setting,value
CC1C(c2ccccc2)OC(N2CCOCC2)C(C)(C)CN1C (configuration not stated),T/C,[1],112 % of control
same,T/C,[2],72 % of control
O=[N+]([O-])c1ccc(N(CCO)CCO)c2c1no[n+]2[O-],T/C,[3],53 % of control
same,T/C,[4],83 % of control
same,T/C,[5],34 % of control
C[n+]1c(-c2ccc(NC(=O)c3ccc(C(=O)Nc4ccc(-c5cn6ccccc6[n+]5C)cc4)cc3)cc2)cn2ccccc21,T/C,[3],47 % of control
same,T/C,[4],49 % of control
Nc1cc2c(cc1Br)-c1c(C(=O)O)cccc1C2O (configuration not stated),T/C,"dose: 150.0 mg/kg/injection, vehicle: sodium bicarbonate",74 % of control
same,T/C,"dose: 300.0 mg/kg/injection, vehicle: sodium bicarbonate",78 % of control
same,T/C,"dose: 600.0 mg/kg/injection, vehicle: sodium bicarbonate",68 % of control
same,T/C,"dose: 1200.0 mg/kg/injection, vehicle: sodium bicarbonate",56 % of control
CNC(=O)/C=C/C1=CN2C(=O)c3ccc(C)c(O)c3NC(OC)C2C1 (configuration not stated),T/C,"dose: 100.0 micrograms/kg/injection, vehicle: saline",1 % of control
same,T/C,"dose: 200.0 micrograms/kg/injection, vehicle: saline",20 % of control
same,T/C,"dose: 400.0 micrograms/kg/injection, vehicle: saline",29 % of control
same,T/C,"dose: 800.0 micrograms/kg/injection, vehicle: saline",-17 % of control
NC(=S=O)C(N)=S=O,T/C,"dose: 125.0 mg/kg/injection, vehicle: saline with Tween-80",97 % of control
same,T/C,"dose: 250.0 mg/kg/injection, vehicle: saline with Tween-80",98 % of control
same,T/C,"dose: 500.0 mg/kg/injection, vehicle: saline with Tween-80",100 % of control
COC1=C(C)C(=O)C2=C(C1=O)C(CO)N1C(C#N)C3CC4C(C1C2N1CCOC41)N3C (configuration not stated),T/C,"dose: 1.25 mg/kg/injection, vehicle: saline + alcohol",117 % of control
same,T/C,"dose: 2.5 mg/kg/injection, vehicle: saline + alcohol",45 % of control
CNC(=O)N(C)N=NCCCl,T/C,"dose: 100.0 mg/kg/injection, vehicle: saline with Tween-80",-19 % of control
same,T/C,[6],-66 % of control
CCCCNc1ccc2nnc(C)n2n1,T/C,"dose: 75.0 mg/kg/injection, vehicle: DMSO",75 % of control
same,T/C,"dose: 150.0 mg/kg/injection, vehicle: DMSO",19 % of control
same,T/C,"dose: 300.0 mg/kg/injection, vehicle: DMSO",65 % of control
C=C1c2cccc(O)c2C(O)=C2C(=O)[C@]3(O)C(O)=C(C(N)=O)C(=O)[C@@H](N(C)C)[C@@H]3[C@@H](O)[C@H]12,T/C,"dose: 75.0 mg/kg/injection, vehicle: Klucel (hydroxypropylcellulose) (HPC)",96 % of control
Cc1ccc(C(=Nc2ccccc2)N=P(c2ccccc2)(c2ccccc2)c2ccccc2)cc1,T/C,[5],90 % of control
same,T/C,[6],82 % of control
S=c1sc2ccccc2n1CN1CCOCC1,T/C,[1],81 % of control
same,T/C,[2],172 % of control
same,T/C,"dose: 600.0 mg/kg/injection, vehicle: saline with Tween-80",57 % of control
CC1=C[P+](c2ccccc2)(c2ccccc2)C=C(c2ccccc2)O1,T/C,"dose: 1.0 mg/kg/injection, vehicle: suspension in saline",94 % of control
same,T/C,"dose: 2.0 mg/kg/injection, vehicle: suspension in saline",89 % of control
same,T/C,"dose: 8.0 mg/kg/injection, vehicle: suspension in saline",80 % of control
CCOC(=O)/N=[N+](\[O-])c1ccccc1,T/C,[3],156 % of control
same,T/C,[4],245 % of control
same,T/C,[5],217 % of control
